These results are taken from ChEMBL document CHEMBL5576084, “Development of chromone-thiazolidine-2,4-dione Knoevenagel conjugates as apoptosis inducing agents” (Bioorg Med Chem Lett, 2024).

Series [1] has as its system A549. Put plainly: Cytotoxicity against human A549 cells assessed as inhibition of cell growth incubated for 48 hrs by MTT assay. Type of series: functional, cell-based. The following applies: A549, 48 h.
Series [2] concerns HCT-116. Put plainly: Cytotoxicity against human HCT-116 cells assessed as inhibition of cell growth incubated for 48 hrs by MTT assay. Format: functional, cell-based. The following applies: HCT-116, 48 h. For orientation: Formazan colour is commonly taken as a measure of viable cells.
The nature of series [3]: Cytotoxicity against HEK293 cells assessed as inhibition of cell growth incubated for 48 hrs by MTT assay. Type of series: toxicity, cell-based. The conditions noted are these: human.
For series [4], the system named is HepG2. Put plainly: Cytotoxicity against human HepG2 cells assessed as inhibition of cell growth incubated for 48 hrs by MTT assay. The conditions noted are these: HepG2, 48 h. Format: functional, cell-based.
The subject of series [5] is SK-MEL-28. Put plainly: Cytotoxicity against human SK-MEL-28 cells assessed as inhibition of cell growth incubated for 48 hrs by MTT assay. The conditions noted are these: SK-MEL-28, 48 h. Type of series: functional, cell-based.
Series [6] relates to MCF7. Put plainly: Cytotoxicity against human MCF7 cells assessed as inhibition of cell growth incubated for 48 hrs by MTT assay. The following applies: MCF7, 48 h. Type of series: functional, cell-based.

For `Cc1ccc2occ(/C=C3\SC(=O)N(CC(=O)c4ccc(Br)cc4)C3=O)c(=O)c2c1`, the IC50 in series [1] is > 10 µM; in series [2], > 10 µM; in series [4], > 10 µM; in series [5], 9.1 µM; in series [6], > 10 µM. Further, the IC50 at 48 h in series [3] came out at 16.5 µM.

Turning to `O=C(CN1C(=O)S/C(=C\c2coc3cc(Br)ccc3c2=O)C1=O)c1ccc(Cl)cc1`, the IC50 is 8.4 µM in series [1]; > 10 µM in series [2]; > 10 µM in series [4]; > 10 µM in series [5]; > 10 µM in series [6]. Besides, the IC50 at 48 h in series [3] turned out to be 18.1 µM.

As for `O=C(CN1C(=O)S/C(=C\c2coc3cc(Br)ccc3c2=O)C1=O)c1ccc(Br)cc1`, the IC50 in series [1], in series [2], in series [4], in series [5] and in series [6] was > 10 µM throughout. Besides, the IC50 at 48 h in series [3] was 23.6 µM.

As to `COc1ccc(C(=O)CN2C(=O)S/C(=C\c3coc4ccccc4c3=O)C2=O)cc1`, the IC50 was 8.8 µM in series [1]; > 10 µM in series [2]; > 10 µM in series [4]; > 10 µM in series [5]; > 10 µM in series [6]. In series [3], the IC50 at 48 h is 168 µM.

With `Cc1ccc(C(=O)CN2C(=O)S/C(=C\c3coc4cc(Br)ccc4c3=O)C2=O)cc1`, the IC50 in series [1] is 6.5 µM; in series [2], > 10 µM; in series [4] it was > 10 µM; in series [5], > 10 µM; in series [6] it was 10.1 µM. The IC50 at 48 h in series [3] was 15.1 µM.

With `Cc1ccc(C(=O)CN2C(=O)S/C(=C\c3coc4ccc(C)cc4c3=O)C2=O)cc1`, the IC50 is 8.2 µM in series [1]; > 10 µM in series [2]; > 10 µM in series [4]; > 10 µM in series [5]; > 10 µM in series [6]. The IC50 at 48 h in series [3] amounted to 14.1 µM.

Consider `Cc1ccc2occ(/C=C3\SC(=O)N(CC(=O)c4ccc(Cl)cc4)C3=O)c(=O)c2c1`, for which the IC50 in series [1] was 6.3 µM; in series [2] it was > 10 µM; in series [4], > 10 µM; in series [5] it was > 10 µM; in series [6], 8.9 µM. Besides, the IC50 at 48 h in series [3] worked out at 15.2 µM.

Turning to `O=C(CN1C(=O)S/C(=C\c2coc3ccccc3c2=O)C1=O)c1ccc(F)cc1`, the IC50 in series [1] is 8.2 µM; in series [2], > 10 µM; in series [4], > 10 µM; in series [5], > 10 µM; in series [6] it was > 10 µM. In addition, the IC50 at 48 h in series [3] amounted to 15.5 µM.

As to `Cc1ccc(C(=O)CN2C(=O)S/C(=C\c3coc4cc(F)ccc4c3=O)C2=O)cc1`, the IC50 in series [1], in series [2], in series [4], in series [5] and in series [6] was > 10 µM throughout. Further, the IC50 at 48 h in series [3] worked out at 16.6 µM.

On to `Cc1ccc2occ(/C=C3\SC(=O)N(CC(=O)c4ccc(F)cc4)C3=O)c(=O)c2c1`, for which the IC50 in series [1], in series [2], in series [4], in series [5] and in series [6] was > 10 µM throughout. Moreover, the IC50 at 48 h in series [3] was 15.2 µM.

Take `O=C(CN1C(=O)S/C(=C\c2coc3cc(Br)ccc3c2=O)C1=O)c1ccccc1`: the IC50 in series [1] is 8.8 µM; in series [2] it was > 10 µM; in series [4], > 10 µM; in series [5], > 10 µM; in series [6] it was > 10 µM. Also, the IC50 at 48 h in series [3] turned out to be 21.1 µM.

For `O=C(CN1C(=O)S/C(=C\c2coc3ccccc3c2=O)C1=O)c1ccc(Cl)cc1`, the IC50 was > 10 µM in series [1]; > 10 µM in series [2]; 12.3 µM in series [4]; > 10 µM in series [5]; 8.7 µM in series [6]. The IC50 at 48 h in series [3] amounted to 25 µM.

Take `O=C(CN1C(=O)S/C(=C\c2coc3ccccc3c2=O)C1=O)c1ccc(Br)cc1`: the concentration for half-maximal inhibition (IC50) was 7.8 µM in series [1]; > 10 µM in series [2]; > 10 µM in series [4]; > 10 µM in series [5]; > 10 µM in series [6]. The IC50 at 48 h in series [3] is 21.1 µM.

As for `O=C(CN1C(=O)S/C(=C\c2coc3ccccc3c2=O)C1=O)c1ccccc1`, the IC50 in series [1], in series [2], in series [4], in series [5] and in series [6] was > 10 µM throughout. Besides, the IC50 at 48 h in series [3] amounted to 17.5 µM.

Consider `O=C(CN1C(=O)S/C(=C\c2coc3cc(F)ccc3c2=O)C1=O)c1ccc(Cl)cc1`, for which the IC50 in series [1], in series [2], in series [4], in series [5] and in series [6] was > 10 µM in each case. Moreover, the IC50 at 48 h in series [3] was determined as 13.4 µM.

Regarding `Cc1ccc2occ(/C=C3\SC(=O)N(CC(=O)c4ccccc4)C3=O)c(=O)c2c1`, the IC50 in series [1], in series [2], in series [4], in series [5] and in series [6] was > 10 µM throughout. Also, in series [3], the half-maximal inhibitory concentration (IC50) at 48 h turned out to be 13.6 µM.

In the case of `O=C(CN1C(=O)S/C(=C\c2coc3ccccc3c2=O)C1=O)c1ccc(Cl)c(Cl)c1`, the IC50 is > 10 µM in series [1]; > 10 µM in series [2]; > 10 µM in series [4]; > 10 µM in series [5]; 9.1 µM in series [6]. Also, the IC50 at 48 h in series [3] turned out to be 19.6 µM.

For `Cc1ccc(C(=O)CN2C(=O)S/C(=C\c3coc4ccccc4c3=O)C2=O)cc1`, the IC50 was 8.7 µM in series [1]; > 10 µM in series [2]; > 10 µM in series [4]; > 10 µM in series [5]; > 10 µM in series [6]. Besides, the IC50 at 48 h in series [3] is 28.2 µM.

As for `O=C(CN1C(=O)S/C(=C\c2coc3ccc(Br)cc3c2=O)C1=O)c1ccccc1`, the IC50 in series [1], in series [2], in series [4], in series [5] and in series [6] was > 10 µM each time. Further, the IC50 at 48 h in series [3] stood at 13.2 µM.

On to `N#Cc1ccc(C(=O)CN2C(=O)S/C(=C\c3coc4ccccc4c3=O)C2=O)cc1`, for which the IC50 in series [1] was 8.8 µM; in series [2] it was > 10 µM; in series [4], > 10 µM; in series [5], > 10 µM; in series [6] it was > 10 µM. Further, in series [3], the IC50 at 48 h stood at 27.8 µM.

The IC50 is the concentration needed to halve the response being measured.
